Data from patent publication US10456400B2, “Aza-ellipticine analogs, methods of synthesis and methods of treatment” (MUSC FOUNDATION FOR RESEARCH DEVELOPMENT, priority 2014, dated 2019).
Read-outs that look alike come from different tables or passages of the source.

Tests used:
[1] = tested on: Human mammary cancer MCF-7 cells; assay: Cytotoxicity in MCF-7 cells (72 h treatment, Hoechst 33342 staining, IN Cell Analyzer imaging); type: cell-based
Description: (§1) Human mammary cancer MCF-7 cells were maintained under standard conditions using Dulbecco's Modified Eagle Medium Nutrient Mixture F12 (DMEM-F12, GIBCO #12400-024) accompanied by 10% fetal calf serum (FCS, Atlanta Biologicals #S 11550). Cells were cultured to 80% confluency before being lifted with 0.05% Trypsin/EDTA (GIBCO #1404912) for 2 minutes, spun and resuspended in new media.
(§2) MCF7 cells were seeded at a density of 10,000 cells per well in 96 well plates (BD Falcon #353220). Cells were grown for 24 h, washed in phosphate-buffered saline (PBS, Life Technologies #14080-055), media was then replaced with DMEM-F12 at 5% FCS. At this time Ellipticine, including Aza-Ellipticine compounds, were added from a treatment plate (3 μL per condition) for a total volume of 150 μL (final concentrations of 0.1, 1, 3, 10 μM) and were incubated under standard conditions for an additional 72 h.
(§3) After 72 h of treatment with drugs, cells were fixed by adding 50 μL of 10% Buffered Formalin Phosphate and stained with 2 μM Hoechst 33342 (AnaSpec #83218) stock (20000×) to media for 1 h. Images were then captured with the IN Cell Analyzer 2000 (GE Healthcare UK Ltd., Buckinghamshire, UK).

[2] = Ramkumar and Nagarajan, 2014; cited from earlier work
[3] = Cytotoxicity in MCF-7 cells (72 h treatment, Hoechst 33342 staining, IN Cell Analyzer imaging); type: cell-based, Human; details: human
Description: as §1, §2, §3

Row | SMILES | EC50 at 72 h [3] [nM] | further results
1 | Cc1c2ccncc2c(C)c2c1[nH]c1ccc(O)cc12 [9-Hydroxy ellipticine, reference compound] |  | EC50 ([1]; MCF-7 cells, 72 h treatment, 5% FCS, concentrations 0.1, 1, 3, 10 μM): 900 nM; potency compared with parent ellipticine [2]: forty times more potent than its parent
2 | c1ccc2c(c1)[nH]c1nc3cnccc3cc12 [Example 2, 10H-indolo[2,3-b][1,7]naphthyridine] | 6000 | 
3 | COc1ccc2[nH]c3nc4cccnc4c(C)c3c2c1 [Example 7, 9-methoxy-11-methyl-6H-indolo[2,3-b][1,5]naphthyridine] | 14000 | 
4 | CCCn1c2ccc(OC)cc2c2cc3ncccc3nc21 [Example 8, 9-methoxy-6-propyl-6H-indolo[2,3-b][1,5]naphthyridine] | 13300 | 
5 | COc1ccc2[nH]c3nc4cccnc4cc3c2c1 [Example 12, 9-methoxy-6H-indolo[2,3-b][1,5]naphthyridine] | 800 | 
6 | COc1ccc2[nH]c3nc4cnccc4cc3c2c1 [Example 13, 7-methoxy-10H-indolo[2,3-b][1,7]naphthyridine] | 17000 | 
7 | Oc1ccc2[nH]c3nc4cccnc4cc3c2c1 [Example 14, 6H-indolo[2,3-b][1,5]naphthyridin-9-ol] | 5000 | 
8 | COc1cccc2c1[nH]c1nc3cccnc3cc12 [Example 15, 7-methoxy-6H-indolo[2,3-b][1,5]naphthyridine] |  | Cytotoxicity, EC50 (result in words) [1]: No effect
9 | Cc1ccc2[nH]c3nc4cccnc4cc3c2c1 [Example 17, 9-methyl-6H-indolo[2,3-b][1,5]naphthyridine] | 900 | 
10 | CCCCc1c2ncccc2nc2[nH]c3ccc(OC)cc3c12 [Example 18, 11-butyl-9-methoxy-6H-indolo[2,3-b][1,5]naphthyridine] | 1000 | 
11 | CC(=O)Oc1ccc2c(c1)c1cc3ncccc3nc1n2C(C)=O [Example 19, 6-acetyl-6H-indolo[2,3-b][1,5]naphthyridin-9-yl acetate] | 1000 | 
12 | Cc1c2ccncc2c(C)c2c1[nH]c1ccccc12 [ellipticine] |  | EC50 at 72 h ([3]; MCF-7 cells, 72 h treatment, 5% FCS, concentrations 0.1, 1, 3, 10 μM, read-out: Cytotoxicity, EC50): 1000 nM
